According to patent publication US20160113932A1, “TREATMENT OF CANCERS USING PI3 KINASE ISOFORM MODULATORS” (INFINITY PHARMACEUTICALS, INC., priority 2013, published 2016):
Entries after “also recorded” stand apart in the source; their conditions may differ. Marks after values point to notes of the source that are not given here.

Tests used:
[1] = Tissue distribution of radiolabelled Compound 292 in rat; type: in vivo
[2] = In vitro genetic toxicity studies
[3] = Phase 1 study in healthy subjects: pharmacokinetics (single dose, multiple dose, food effect, DDI); type: in vivo, human; details: for AUC(0-24): mean (% CV)
[4] = system: advanced hematologic malignancies; test: Phase 1 dose-escalation study in advanced hematologic malignancies: clinical response; type: in vivo, human
Toledo = test: DLBCL cellular growth inhibition assay; type: cell-based; details: Homo sapiens
U2932 = test: DLBCL cellular growth inhibition, 72 hour CTG assay; type: cell-based; details: Homo sapiens
[5] = CLL/SLL, 16 treated, 11 evaluable
[6] = T-Cell Lymphoma, 7 treated, 6 evaluable

C[C@H](Nc1ncnc2[nH]cnc12)c1cc2cccc(Cl)c2c(=O)n1-c1ccccc1 [Compound 292]
distribution into rat tissues [1]: rapid and extensive | elimination of radiolabelled Compound 292 from tissues ([1]; majority of tissues without quantifiable radioactivity at 24 hr): rapid | genetic toxicity [2]: no genetic toxicity | increase of Cmax in the presence of ketoconazole ([3]; DDI portion, 200 mg ql2h ketoconazole): approximately 66% | accumulation ([3]; following 14 days of Q12 h oral administration): less than 2 fold | dose dependence of exposure (Cmax and AUC) ([3]; healthy subjects, across the dose ranges evaluated): increased proportionally to dose; also recorded: dose-proportional pharmacokinetics | AUC(0-24) ([3]; single dose 1 mg): 149 (67) ng*hr/mL | AUC(0-24) ([3]; single dose 2 mg): 289 (43) ng*hr/mL | AUC(0-24) ([3]; single dose 5 mg): 733 (5) ng*hr/mL | AUC(0-24) ([3]; single dose 10 mg): 891 (14) ng*hr/mL | AUC(0-24) ([3]; single dose 20 mg): 2193 (16) ng*hr/mL | AUC(0-24) ([3]; single dose 30 mg): 3263 (38) ng*hr/mL | responders responding by first assessment (within about 2 months) ([4]; B cell lymphoma, 16 out of 18 responders): 89% | Best Observed Response: CR [4, 5]: 0 n | Best Observed Response: PR [4, 5]: 6 n | Time to Response, Median (range) [4, 5]: 2.9 (1.8, 5.6) Months | Best Observed Response: SD ([4]; CLL/SLL, 16 treated, 11 evaluable, four nodal responses): 4 ^c n | Best Observed Response: CR ([4]; CTCL, T/E 10/4): 0 n | Best Observed Response: SD ([4]; CTCL, T/E 10/4): 2 n | Median Time to Response (range) ([4]; CTCL, T/E 10/4): 1.7 (—) ^ Months | Best Observed Response: PR ([4]; HL, 3 treated, 2 evaluable): 0 n | Best Observed Response: SD ([4]; HL, 3 treated, 2 evaluable): 0 n | Time to Response, Median (range) ([4]; HL, 3 treated, 2 evaluable): 1.7 (1.7, 1.7) Months | Best Observed Response: CR ([4]; HL, T/E 3/3 (Table 16)): 1 (33) n(%) | Best Observed Response: Overall ([4]; HL, T/E 3/3 (Table 16)): 1 (33) n(%) | Best Observed Response: PD ([4]; HL, T/E 3/3 (Table 16)): 1 (33) n(%) | Best Observed Response: PR ([4]; HL, T/E 3/3 (Table 16)): 0 n(%) | Best Observed Response: SD ([4]; HL, T/E 3/3 (Table 16)): 1 (33) n(%) | Median Time to Rsp (Range) ([4]; HL, T/E 3/3 (Table 16)): 1.7 Months | Best Observed Response: CR ([4]; MCL, 4 treated, 3 evaluable): 0 n | Best Observed Response: PR ([4]; MCL, 4 treated, 3 evaluable): 2 n | Best Observed Response: SD ([4]; MCL, 4 treated, 3 evaluable): 0 n | Time to Response, Median (range) ([4]; MCL, 4 treated, 3 evaluable): 1.9 (1.9, 1.9) Months | responses ([4]; MCL, 11 evaluable patients, 8, 15 and 25 mg BID): 1/1 | Best Observed Response: CR ([4]; MCL, T/E 9/6 (Table 16)): 1 (17) n(%) | Best Observed Response: Overall ([4]; MCL, T/E 9/6 (Table 16)): 4 (67) n(%) | Best Observed Response: PD ([4]; MCL, T/E 9/6 (Table 16)): 1 (17) n(%) | Best Observed Response: PR ([4]; MCL, T/E 9/6 (Table 16)): 3 (50) n(%) | Best Observed Response: SD ([4]; MCL, T/E 9/6 (Table 16)): 1 (17) n(%) | Median Time to Rsp (Range) ([4]; MCL, T/E 9/6 (Table 16)): 1.8 (1.6-1.9) Months | Best Observed Response: CR ([4]; MM, 3 treated, 3 evaluable): 0 n | Best Observed Response: PD ([4]; MM, 3 treated, 3 evaluable): 2 n | Best Observed Response: PR ([4]; MM, 3 treated, 3 evaluable): 0 n | Best Observed Response: PD ([4]; PTCL, T/E 7/5): 3 n | Best Observed Response: SD ([4]; PTCL, T/E 7/5): 0 n | Median Time to Response (range) ([4]; PTCL, T/E 7/5): 2.3 (1.9-2.7) Months | patients with at least 50% tumor response ([4]; T cell lymphoma (2 PTCL and 1 CTCL), CT scans): 33 % of the patients | Best Observed Response: PD [4, 6]: 3 n | Time to Response, Median (range) [4, 6]: 2.4 (1.8, 3.1) Months | Best Observed Response: PD ([4]; TCL Total, T/E 17/9 (Table 15)): 4 n | Best Observed Response: PR ([4]; TCL Total, T/E 17/9 (Table 15)): 2 n | Best Observed Response: SD ([4]; TCL Total, T/E 17/9 (Table 15)): 2 n | Median Time to Response (range) ([4]; TCL Total, T/E 17/9 (Table 15)): 1.9 (1.7-2.7) Months | Best Observed Response: CR ([4]; aNHL, 5 treated, 3 evaluable): 0 n | Best Observed Response: PD ([4]; aNHL, 5 treated, 3 evaluable): 2 n | Best Observed Response: PR ([4]; aNHL, 5 treated, 3 evaluable): 0 n | Best Observed Response: CR ([4]; aNHL, T/E 13/10 (Table 16)): 0 n(%) | Best Observed Response: Overall ([4]; aNHL, T/E 13/10 (Table 16)): 0 n(%) | Best Observed Response: PD ([4]; aNHL, T/E 13/10 (Table 16)): 6 (60) n(%) | Best Observed Response: PR ([4]; aNHL, T/E 13/10 (Table 16)): 0 n(%) | Best Observed Response: SD ([4]; aNHL, T/E 13/10 (Table 16)): 4 (40) n(%) | Best Observed Response: PR ([4]; iNHL, 17 treated, 13 evaluable): 7 n | Time to Response, Median (range) ([4]; iNHL, 17 treated, 13 evaluable): 1.8 (1.7, 2.8) Months | Best Observed Response: CR ([4]; iNHL, T/E 26/19 (Table 16)): 3 (16) n(%) | Best Observed Response: MR (Minor Response for Waldenstrom's) ([4]; iNHL, T/E 26/19 (Table 16)): 1 (5) n(%) | Best Observed Response: Overall ([4]; iNHL, T/E 26/19 (Table 16)): 13 (68) n(%) | Best Observed Response: PD ([4]; iNHL, T/E 26/19 (Table 16)): 2 (11) n(%) | Best Observed Response: PR ([4]; iNHL, T/E 26/19 (Table 16)): 10 (53) n(%) | Best Observed Response: SD ([4]; iNHL, T/E 26/19 (Table 16)): 3 (16) n(%) | Median Time to Rsp (Range) ([4]; iNHL, T/E 26/19 (Table 16)): 1.8 (1.7-4.1) Months | IC50 (Toledo): > 50 µM | IC50 (U2932): > 50 µM
